Data taken from publication PMC5390467, “Novel lead structures with both Plasmodium falciparum gametocytocidal and asexual blood stage activity identified from high throughput compound screening” (Malaria Journal, 2017).

Legend:
[1] = test system: P. falciparum NF54 gametocytes; test: gametocyte viability assay (AlamarBlue); assay type: cell-based, Plasmodium falciparum; conditions: for IC50: P. falciparum NF54 stage III-V gametocytes, 72 h, AlamarBlue, mean ± SD, n = 3; for Asexual/Gametocyte: ratio of asexual IC50 to gametocyte IC50; for ratio of IC50s, lower IC50 in gametocyte viability assay than in asexual parasite growth assay: asexual versus gametocyte
Procedure: (§1) Asexual parasites of P. falciparum strain NF54 were cultured as described previously. Briefly, parasites were maintained in RPMI 1640 medium containing 10% positive human serum + erythrocytes (5% haematocrit), 2.5% sodium bicarbonate and 11 µg/mL gentamicin at 37 °C with 5% CO2, 5% O2 and 90% N2. Gametocyte cultures were set up at 0.1% parasitaemia and on days 9–10 treated with 50 mM N-acetylglucosamine (NAG) to block further asexual growth. Stage III–V gametocytes were isolated by Percoll density gradient centrifugation on day 12 and returned to culture for 24 h before being used in the assay. At the time of the assay over 73% of the gametocytes were stage IV or V (Additional file 1). HepG2 cells (ATCC, cat. no. 77400) were cultured in 175-cm^2 tissue culture flasks with 30 ml growth medium at 37 °C in a 5% CO2 and 5% O2 humidified atmosphere. Growth medium was made with Dulbecco’s Modified Eagle Medium with 10% fetal bovine serum (FBS). Growth medium was replaced every other day and cells were passaged at 75% confluence.
Compounds from the Sytravon library (a retired Pharma screening collection that contains a diversity of novel small molecules, with an emphasis on medicinal chemistry-tractable scaffolds) were obtained as powder samples and dissolved in DMSO as […] stock solutions. Compound screening experiments were performed as previously described. In the primary screen, two concentrations for each compound were tested. No technical and biological replicates were involved. In the follow-up confirmation studies, three biological replicates were tested for each compound in both parasite assays. The positive control was 46 µM of Torin 2 and negative control was DMSO. Briefly, 2.5 μL/well incomplete medium was dispensed into each well of 1536-well plates using the Multidrop Combi followed by 23 nL compound transferring using the NX-TR Pintool (WAKO Scientific Solutions, San Diego, CA). Then, 2.5 μL/well of gametocytes was dispensed with a seeding density of 20,000 cells/well using the Multidrop Combi. The assay plates were incubated for 72 h at 37 °C with 5% CO2. After addition of 5 μL/well of 2X AlamarBlue dye (Life Technologies, cat. no. DAL1100), the plates were incubated for 24 h at 37 °C with 5% CO2 and then were read in a fluorescence detection mode (Ex = 525 nm, Em = 598 nm) on a ViewLux plate reader (PerkinElmer).

[2] = test system: P. falciparum NF54 asexual parasites; test: asexual parasite growth inhibition assay (SYBR Green); assay type: cell-based, Plasmodium falciparum; conditions: 72 h, mean ± SD, n = 3
Procedure: as §1
Drug activity on asexual stage parasites was tested using a SYBR Green assay as described previously. Briefly, 2.5 μL/well complete culture medium was dispensed into each well of 1536-well plates using the Multidrop Combi followed by 23 nL compound transferring using the NX-TR Pintool. Parasites were diluted to 0.5% parasitaemia in complete culture medium with 2% haematocrit and drugs diluted in DMSO (≤0.5%). The pre-diluted parasites were dispensed into a 1536-well plate (2.5 μL/well). After 72 h incubation under the standard culture conditions, 5 μL/well of lysis buffer containing SYBR Green I was added to the parasite culture and incubated for 30 min at room temperature. The fluorescence of each well was measured in a fluorescence detection mode (Ex = 490 nm, Em = 520 nm) using a ViewLux plate reader (PerkinElmer).

HepG2 cells = test: HepG2 cytotoxicity assay (AlamarBlue); assay type: cell-based, human; conditions: for HepG2, IC50 (dash = less than 25% cytotoxicity) / cytotoxicity at 46 µM / IC50: HepG2 cells, 72 h, AlamarBlue; for HepG2, IC50 (dash = less than 25% cytotoxicity) / cytotoxicity at 46 µM: up to 46 µM; for cytotoxicity at 46 µM: Homo sapiens, read-out: HepG2, IC50 (dash = less than 25% cytotoxicity); for IC50 / maximum response, HepG2 cytotoxicity: titration 0.001 to 46 µM; for IC50: mean ± SD, n = 3
Procedure: as §1
Drug activity on HepG2 was tested using an AlamarBlue assay as previously described. Briefly, 5 μL/well of HepG2 cells were dispensed with a seeding density of 1000 cells/well using the Multidrop Combi. 23 nL compound was transferred using the NX-TR Pintool. After 72 h incubation under the standard culture condition, 5 μL/well of 2X AlamarBlue dye was added to the cells, the plates were incubated for 2 h at 37 °C with 5% CO2 and then were read in a fluorescence detection mode (Ex = 525 nm, Em = 598 nm) on a ViewLux plate reader.

SMILES | IC50 [1] | Asexual/Gametocyte [1] | IC50 [2] | HepG2, IC50 (dash = less than 25% cytotoxicity) (HepG2 cells) | IC50 ([1]; Plasmodium falciparum) | IC50 ([2]; Plasmodium falciparum) | cytotoxicity at 46 µM (HepG2 cells) | ratio of IC50s, lower IC50 in gametocyte viability assay than in asexual parasite growth assay [1] | IC50 (HepG2 cells) | maximum response, HepG2 cytotoxicity (HepG2 cells)
CC(C)c1ccccc1Oc1c(C(F)(F)F)oc2c(CN3CCN(C)CC3)c(O)ccc2c1=O [NCGC00100597] | 6.04 ± 1.9 µM | 0.10 | 0.63 ± 0.05 µM | – (Indicates compounds with less than 25% cytotoxicity at up to 46 µM) |  |  |  |  |  | 
CCc1ccc(Oc2c(C(F)(F)F)oc3c(CN4CCN(CC)CC4)c(O)ccc3c2=O)cc1 [NCGC00101506] | 4.82 ± 0.21 µM | 0.11 | 0.54 ± 0.05 µM | – (Indicates compounds with less than 25% cytotoxicity at up to 46 µM) |  |  |  |  |  | 
CCOc1ccccc1N(C)C(=O)Cn1cnc2sc(C)c(S(=O)(=O)N3CCC(C)CC3)c2c1=O [NCGC00104044] |  | 0.26 | 9.94 ± 0.93 µM | – (Indicates compounds with less than 25% cytotoxicity at up to 46 µM) |  |  |  |  |  | 
CC(C)c1ccc(Nc2c(-c3ccccn3)nc3ccccn23)cc1 [NCGC00104490] |  | 1.72 |  |  | 1.29 ± 0.29 µM | 2.22 ± 0.35 µM | < 25% |  |  | 
COc1ccc(Nc2c(-c3ccccn3)nc3ccc(Cl)cn23)cc1 [NCGC00104528] | 8.91 ± 0.2 µM | 1.56 | 13.9 ± 0.93 µM | – (Indicates compounds with less than 25% cytotoxicity at up to 46 µM) |  |  |  |  |  | 
Cc1cccc2nc(-c3ccccn3)c(Nc3ccccc3)n12 [NCGC00106055] | 3.98 ± 1.12 µM | 1.05 | 4.18 ± 0.68 µM | – (Indicates compounds with less than 25% cytotoxicity at up to 46 µM) |  |  |  |  |  | 
Cc1ccc2nc(-c3ccccn3)c(Nc3ccccc3C)n2c1 [NCGC00106087] | 3.34 ± 0.51 µM | 2.24 | 7.49 ± 4.11 µM | – (Indicates compounds with less than 25% cytotoxicity at up to 46 µM) |  |  |  |  |  | 
Cc1ccc2nc(-c3ccccn3)c(Nc3ccc(F)cc3)n2c1 [NCGC00106091] | 2.45 ± 0.42 µM | 1.84 | 4.51 ± 1.29 µM | – (Indicates compounds with less than 25% cytotoxicity at up to 46 µM) |  |  |  |  |  | 
Cc1ccn2c(Nc3ccccc3C)c(-c3ccccn3)nc2c1 [NCGC00106119] | 2.82 ± 0.3 µM | 1.50 | 4.22 ± 0.29 µM | – (Indicates compounds with less than 25% cytotoxicity at up to 46 µM) |  |  |  |  |  | 
Cc1ccn2c(Nc3ccc(F)cc3)c(-c3ccccn3)nc2c1 [NCGC00106780] |  | 1.94 |  |  | 1.82 ± 0.11 µM | 3.53 ± 1.21 µM | < 25% |  |  | 
CCN(CC)CCCNC(=O)CSc1c2c(nc3cc(Cl)ccc13)CCCC2 [NCGC00110901] | 10.6 ± 1.32 µM | 3.41 | 36.1 ± 15.2 µM | – (Indicates compounds with less than 25% cytotoxicity at up to 46 µM) |  |  |  | ~ fourfold |  | 
CN1CCN(c2nc3c(S(=O)(=O)c4ccc(Br)cc4)nnn3c3ccsc23)CC1 [NCGC00123034] | 35.2 ± 4.52 µM | 0.92 | 32.1 ± 12.6 µM | – (Indicates compounds with less than 25% cytotoxicity at up to 46 µM) |  |  |  |  |  | 
O=C(NCc1ccc(Cl)cc1)C1CCCN(C(=O)c2cnn(-c3ccc(F)cc3)c2-n2cccc2)C1 (stereo not shown) [NCGC00124960] | ~60 µM | 0.59 | 35.6 ± 1.77 µM | – (Indicates compounds with less than 25% cytotoxicity at up to 46 µM) |  |  |  |  |  | 
CC(C)(C)OC(=O)N1CCC(c2c(C(=O)NCCN3CCC(Cc4ccccc4)CC3)cnn2-c2cccc(Cl)c2)CC1 [NCGC00126892] | 31.3 ± 12.8 µM | 0.24 | 7.49 ± 0.86 µM |  |  |  |  |  | 34.4 µM | 93.0%
COc1ccc(CCN2CCC(CNC(=O)c3cnn(-c4ccccc4)c3C3CCN(C(=O)OC(C)(C)C)CC3)CC2)cc1 [NCGC00126987] | 30.6 ± 1.95 µM | 0.05 | 1.47 ± 0.04 µM |  |  |  |  |  | 38.6 ± 0.42 µM | 86.1%
CC(C)(C)OC(=O)N1CCC(c2c(C(=O)NCCN3CCOCC3)cnn2-c2ccccc2)CC1 [NCGC00127015] | 20.3 ± 0.31 µM | 0.15 | 3.05 ± 0.27 µM |  |  |  |  |  | 38.4 µM | 87.2%
CC(C)(C)OC(=O)N1CCC(c2c(C(=O)NCCN3CCC(Cc4ccccc4)CC3)cnn2-c2ccccc2)CC1 [NCGC00127017] | 11.9 ± 2.05 µM | 0.29 | 3.44 ± 0.24 µM |  |  |  |  |  | 25.3 µM | 87.6%
Cc1cc(Nc2ccc(F)cc2)nc(-n2nc(C)cc2C)n1 [NCGC00134124] |  | 3.85 |  |  | 1.55 ± 0.11 µM | 5.96 ± 0.7 µM | < 25% | ~ fourfold |  | 
COc1ccc(Nc2cc(C)nc(-n3nc(C)cc3C)n2)cc1Cl [NCGC00134126] |  | 4.02 |  |  | 1.19 ± 0.05 µM | 4.78 ± 0.43 µM | < 25% | ~ fourfold |  | 
Cc1cc(Nc2ccc(C(C)C)cc2)nc(-n2nc(C)cc2C)n1 [NCGC00134128] |  | 1.64 |  |  | 1.18 ± 0.17 µM | 1.93 ± 0.13 µM | < 25% |  |  | 
Cc1cccc(Nc2cc(C)nc(-n3nc(C)cc3C)n2)c1 [NCGC00134130] |  | 2.30 |  |  | 1.42 ± 0.24 µM | 3.26 ± 0.5 µM | < 25% |  |  | 
CCCCc1ccc(Nc2cc(C)nc(-n3nc(C)cc3C)n2)cc1 [NCGC00134132] |  | 1.87 |  |  | 1.29 ± 0.32 µM | 2.41 ± 0.32 µM | < 25% |  |  | 
